These results are taken from ChEMBL document CHEMBL3507680, “University of Dundee, Gates Library screen for HepG2 cell viability”.

This data set in a line: Human HepG2 cell viability assay in 384 well format. As to conditions: HepG2 cells, read-out: Inhibition. The format is toxicity, cell-based. Set-up: dose 125 nL, time 70.5 hour; cytotoxicity at 70.5 h: concentration not given beside the values.
Take `O=C(COCC1CC1)N1CCN(C(=O)Cc2ccccn2)CC1`: the cytotoxicity at 70.5 h is -1.46%.

Consider `c1ccc(Cc2noc(CN3CCCCC3C3OCCO3)n2)cc1` (stereo not drawn), for which the cytotoxicity at 70.5 h was -2.71%. To `COc1ccc(OCC(=O)NS(=O)(=O)c2cc(C)ccc2C)cc1` belongs -6.75%.

`N#Cc1ccc(SCCCO)c(F)c1`: the cytotoxicity at 70.5 h is -5.69%.

With `COCc1nccc(C2CCCN(Cc3cccc(F)c3)C2)n1` (stereo not drawn), the cytotoxicity at 70.5 h was 0.742%.

With `O=C(c1ccc(Cl)c(Cl)c1)N1CCCCC1C1OCCO1` (stereo not drawn), the cytotoxicity at 70.5 h was -4.22%. As to `CC(C)c1nn(C)c(N(C)C)c1CNCc1ccnn1C`, the cytotoxicity at 70.5 h came out at 18%. To `CCNC(=O)CN1CCC(c2cc(OC)cc(OC)c2)C1` (stereo not drawn) belongs -10.7%; to `CC(C)N(Cc1cccc(Cl)c1)Cc1nnsc1Cl`, -2.95%. For `CCN(CC1CCOC1)C(=O)c1ccc(COc2ccccc2C#N)o1` (stereo not drawn), the cytotoxicity at 70.5 h was -3.17%. The value for `COCCNS(=O)(=O)c1ccc(Cl)c(C(=O)N(C)Cc2ccsc2)c1` was -5.32%; that for `CS(=O)(=O)NCC1CCCN(c2ccc(C#N)cn2)C1` (stereo not drawn) was -8.07%. The value for `CS(=O)(=O)NC1CCCN(c2ccc(C#N)cn2)C1` (stereo not drawn) was -6.77%; that for `O=C(NCCNc1ncccn1)N1CCc2ccccc2C1` was 8.69%; that for `CCN(Cc1ccc2c(c1)OCO2)C(=O)c1ccc(=O)n(C)c1` was -0.838%.

Turning to `CCOc1cccc(CNc2cncc(-n3cccn3)n2)c1`, the cytotoxicity at 70.5 h was -8.59%.

As for `Fc1cccc(CNc2cncc(-n3cccn3)n2)c1`, the cytotoxicity at 70.5 h is -6.71%. In the case of `N#Cc1ccccc1N1CCCN(CC(=O)Nc2ccc(Cl)cn2)CC1`, the cytotoxicity at 70.5 h was -2.38%. The value for `Cn1c(NC(=O)CCS(=O)(=O)C2CCCC2)nc2cc(Cl)ccc21` was -9.03%; that for `O=C(CC1CCCC1)NCCn1nc2ccccn2c1=O` was -2.13%; that for `CC1CCN(C(=O)C2CCCN(C(=O)Nc3ccccn3)C2)CC1` (stereo not drawn) was -9.24%. The value for `Cc1nn(C)c2ncc(S(=O)(=O)N3CCCN4CCCC4C3)cc12` (stereo not drawn) was -2.09%; that for `Cc1nn(C)c2ncc(S(=O)(=O)N3CCCC(C(N)=O)C3)cc12` (stereo not drawn) was -6.46%. To `CN(C)c1ncccc1CNC(=O)N1CCN(C)c2ccccc2C1` belongs -8.8%; to `COc1cccc(N2CCC(CNC(=O)CN3CSCC3=O)C2)c1` (stereo not drawn), -9.99%. In the case of `CCCc1cc(NCCn2cccn2)n2ncnc2n1`, the cytotoxicity at 70.5 h is -6.07%.

As to `Cc1ncc(CN(C)C(=O)c2ccc(N3CCOCC3)c(F)c2)s1`, the cytotoxicity at 70.5 h is -6.71%.

Turning to `Cc1nn(C)c2ncc(S(=O)(=O)N3CCN4CCCC4C3)cc12` (stereo not drawn), the cytotoxicity at 70.5 h is -7.68%. To `Cn1ccnc1COc1ccc(COC(=O)C2CCCO2)cc1` (stereo not drawn) belongs 3.75%. The value for `Cn1c(NC(=O)CNC(=O)C2CC2)nc2cc(Cl)ccc21` was -7.94%. The value for `Cc1nn(C)c2ncc(S(=O)(=O)N3CCCC(C)CC3)cc12` (stereo not drawn) was -8.46%. Turning to `COc1cc(NC(=O)NC2CCCC2)ccc1N1CCOC1=O`, the cytotoxicity at 70.5 h is -8.76%.

On to `OCc1cc2ccccc2nc1N1CCCC1`, for which the cytotoxicity at 70.5 h is -15.5%. To `COc1cc(NC(=O)NC2CCOCC2)ccc1N1CCOC1=O` belongs 6.14%. The value for `CCC(=O)CNC(=O)CCn1nc2ccccn2c1=O` was -1.88%; that for `Cc1cc2c(cc1C)OC(C(=O)NCCNC(=O)C1CCCC1)C2` (stereo not drawn) was -6.43%.

Consider `Cc1cc(N2CCN(c3nc4ccccc4cc3CO)CC2)nc(C)n1`, for which the cytotoxicity at 70.5 h was -9.44%. To `COc1c(CNCc2ccc(N3CCOCC3)nc2)c(C)nn1C` belongs -5.76%; to `Cc1cccc(N(CCC(N)=O)C(=O)c2cc(-n3cccn3)ccn2)c1`, -12%; to `O=C(CCc1cccnc1)Nc1ccc(OCC2CCOCC2)cc1`, -10.4%. As for `CNS(=O)(=O)CC1CCCN1C(=O)c1ccc(C)c(C)c1` (stereo not drawn), the cytotoxicity at 70.5 h turned out to be 25.9%. Consider `CC(C)(C)c1csc(C2CCCCN2C(=O)CCn2cncn2)n1` (stereo not drawn), for which the cytotoxicity at 70.5 h is -5.87%. In the case of `Cn1cc(Br)cc(NC(=O)CC2CCC2)c1=O`, the cytotoxicity at 70.5 h was -6.41%. To `Cc1cccc(N(CCC(N)=O)C(=O)c2ccnc(C)n2)c1` belongs -13.8%. The value for `COCCn1cc(NC(=O)NC(C)CCc2ccccc2)ccc1=O` (stereo not drawn) was -7.43%. Regarding `O=C(NCc1cccnc1)NCC(O)c1ccccc1C(F)(F)F` (stereo not drawn), the cytotoxicity at 70.5 h was -9.13%. The value for `Cc1cc(N2CCC(N(C)Cc3cc(=O)c(O)co3)CC2)nc(C)n1` was -7%; that for `CN(Cc1cc(=O)c(O)co1)C1CCCN(c2ccccc2)C1` (stereo not drawn) was 24.6%; that for `Cc1ccc(CN(C(=O)NCCNC(=O)c2cccnc2)C(C)C)o1` was 14.6%. Regarding `Cc1csc(C2CCCCN2C(=O)CCCn2cccn2)n1` (stereo not drawn), the cytotoxicity at 70.5 h is -11.4%. The value for `COC(=O)Cc1cccc(NC(=O)Cc2ccon2)c1` was 23.7%; that for `Cc1csc(C2CCCCN2C(=O)CCCn2cncn2)n1` (stereo not drawn) was -9.21%; that for `COc1cc(F)c(NC(=O)N(C)CCNC(=O)N(C)C)cc1F` was -0.221%.

As to `Cc1nn(C)c(C)c1NC(=O)Nc1cccnc1N1CCCC1`, the cytotoxicity at 70.5 h is -7.71%. To `Cc1cc(S(=O)(=O)N(C)CC(N)=O)ccc1Br` belongs -2.54%; to `CCC(C)NC(=O)c1cc(S(N)(=O)=O)c(Br)s1` (stereo not drawn), -6.88%; to `CN(Cc1ccc2c(c1)OCCO2)Cn1nc(C(C)(C)C)ccc1=O`, 12.7%. For `CN(C)S(=O)(=O)c1ccc2c(c1)N(Cc1ccccn1)CCC2`, the cytotoxicity at 70.5 h is -1.38%. To `CN(C)S(=O)(=O)c1ccc2c(c1)N(Cc1nccn1C)CCC2` belongs -6.79%; to `CN1CCN(c2ccnc3c(F)cc(Br)cc23)CC1`, 1.8%. To `O=C(CCc1cncc(F)c1)NS(=O)(=O)c1ccc(F)cc1F` belongs 8.87%.

Consider `Cc1cc(F)cc(S(=O)(=O)NC(=O)CCc2cncc(F)c2)c1`, for which the cytotoxicity at 70.5 h is -4.33%.

Regarding `COc1cc(F)c(NC(=O)N(C)Cc2cc(C)on2)cc1F`, the cytotoxicity at 70.5 h is -5.99%.

Turning to `O=C(CN1CCC(OCC2CCCO2)CC1)NCC(F)(F)F` (stereo not drawn), the cytotoxicity at 70.5 h is -7.24%.

Regarding `CCNC(=O)CN1CCC(OCC2CCCO2)CC1` (stereo not drawn), the cytotoxicity at 70.5 h is -6.63%. To `CCc1nnc2n1CC(CNCc1nnc(C(C)(C)C)o1)CC2` (stereo not drawn) belongs -6.78%. `FC(F)(F)Cn1cc(NCc2cscn2)cn1`: the cytotoxicity at 70.5 h was -5.23%. To `CC(C)(C)n1cc(NCc2cscn2)cn1` belongs -6.29%. The value for `CC(C)c1nnc(NC(=O)N2CCN(C)CC2c2ccccc2)s1` (stereo not drawn) was 9.58%. The value for `CC(C)c1nnc(NC(=O)N2CCCC2c2ccncc2)s1` (stereo not drawn) was 20%. In the case of `CN(C)C(CNC(=O)c1nc(N2CCOCC2)ncc1Cl)c1cccs1` (stereo not drawn), the cytotoxicity at 70.5 h is -8.97%. Turning to `CNC(=O)NC(=O)C(C)N1CCCc2cc(OC)ccc2C1` (stereo not drawn), the cytotoxicity at 70.5 h was -13.9%. As for `COc1cc(C(C)=O)ccc1SCC(=O)Nc1ccccn1`, the cytotoxicity at 70.5 h is 21.7%. As for `COc1cc2c(cc1OC)S(=O)(=O)N(Cc1cc(C)on1)C2=O`, the cytotoxicity at 70.5 h is -4.33%. The value for `COc1cc2c(cc1OC)S(=O)(=O)N(Cc1cnn(C)c1)C2=O` was -22.9%. The value for `COc1ccc2c(c1)CCCN(C(C)C(=O)NC(C)C)C2` (stereo not drawn) was -15.7%; that for `CCc1ocnc1C(=O)Nc1ccc2ccn(CCN(C)C)c2c1` was -13.2%. To `COc1cc(C(C)=O)ccc1SCC(=O)Nc1ccc(C)cn1` belongs -7.73%. With `O=C(c1coc2ccccc12)N1CCS(=O)(=O)CC1`, the cytotoxicity at 70.5 h is -5.47%. `NC(=O)c1ccc(OCCC(=O)NC2CCc3c(F)cccc32)cc1` (stereo not drawn): the cytotoxicity at 70.5 h came to 21.4%. Consider `N#Cc1cccc(Cl)c1NCCc1n[nH]c(=O)[nH]1`, for which the cytotoxicity at 70.5 h was -3.93%. To `N#Cc1cccc(Cl)c1NCCCc1nc(=O)[nH][nH]1` belongs -9.76%; to `COCCN(Cc1cccc(C#N)c1)Cc1nnsc1Cl`, 23%. For `CCCN(CCC)Cc1nnsc1Cl`, the cytotoxicity at 70.5 h was -13.7%. To `O=C(NCCc1cccs1)N1CCC[C@H]1CO` belongs -6.62%. The value for `CCN(Cc1nnsc1Cl)C(C)c1ccc(C#N)cc1` (stereo not drawn) was -3.23%; that for `COc1ccc2c(c1)CCCN(C(C)C(=O)N1CCCC1)C2` (stereo not drawn) was -3.36%; that for `CCC(C)(C)NC(=O)Cn1cc(C(N)=O)c(-c2ccccc2)n1` was -7.28%. For the molecule `Cc1ncc2c(n1)CN(CCOc1ccc3c(c1)CCC(=O)N3)CC2`, the cytotoxicity at 70.5 h is -6.43%.

Take `COc1ccc(C(=O)CCc2nc(C3CC3)no2)cc1`: the cytotoxicity at 70.5 h is -23.1%. For the molecule `COc1ccc(CCN2CC(n3nc(C)cc3C)C2)cc1`, the cytotoxicity at 70.5 h is -16.5%.

As for `Cc1nnnn1-c1cc(NCc2cccc(C#N)c2)ccc1F`, the cytotoxicity at 70.5 h is -24.4%. To `COc1ccccc1N1CCN(Cc2cnc3c(c2)c(C)nn3C)CC1` belongs -11.4%. The value for `O=C(CCc1nc(C2CC2)no1)c1ccc(F)c(F)c1` was -17.2%; that for `Cc1cccc2c1C(=O)NC(c1cnc(C3CCC3)s1)N2` (stereo not drawn) was -21.1%; that for `CCS(=O)(=O)CCNC(=O)NC(C)c1ccc(C)s1` (stereo not drawn) was -8.94%.

As to `CCS(=O)(=O)CCNC(=O)NC(C)c1cc(C)sc1C` (stereo not drawn), the cytotoxicity at 70.5 h was -15.4%. The value for `CC(C)c1noc(CCNC(=O)N2CCN(c3cccs3)CC2)n1` was 40.3%. The value for `Cc1cc(C(=O)N(C)C)c2c(Br)cccc2n1` was -10.8%; that for `CN(Cc1cccs1)S(=O)(=O)c1ccc(C(F)(F)F)nc1` was -20.9%; that for `CN(CCn1cnnc1)S(=O)(=O)c1ccc(C(F)(F)F)nc1` was -15.6%. The value for `Brc1cc(CNCc2nnc3n2CCC3)cs1` was -8.54%; that for `O=C1NCCCCC1NCc1csc(-c2ccccn2)n1` (stereo not drawn) was -12.2%.
